# In PubChem BioAssay (NCI):
#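 Dose response: 5 concentrations. Exposure: 48 h. Format: 96-well plates. Endpoint: linear interpolation; highest concentration if not reached. TGI marks complete inhibition of growth.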
# Key:
# Assay in all cases: NCI-60 cell line screen, 48 h
# HL-60(TB) leukemia = test system: HL-60(TB) leukemia
# OVCAR-3 ovarian = test system: OVCAR-3 ovarian
# SK-MEL-28 melanoma = test system: SK-MEL-28 melanoma
# A498 renal = test system: A498 renal
# EKVX NSCLC = test system: EKVX NSCLC
# SW-620 colon = test system: SW-620 colon
# ACHN renal = test system: ACHN renal
# K-562 leukemia = test system: K-562 leukemia
# HT29 colon = test system: HT29 colon
# RPMI-8226 leukemia = test system: RPMI-8226 leukemia
# NCI-H522 lung = test system: NCI-H522 lung
# HOP-18 NSCLC = test system: HOP-18 NSCLC
# OVCAR-8 ovarian = test system: OVCAR-8 ovarian
# HOP-62 NSCLC = test system: HOP-62 NSCLC
# RXF 393 renal = test system: RXF 393 renal
# HCC-2998 colon = test system: HCC-2998 colon
# UACC-62 melanoma = test system: UACC-62 melanoma
# IGROV1 ovarian = test system: IGROV1 ovarian
# DLD-1 colon = test system: DLD-1 colon
# SNB-19 CNS = test system: SNB-19 CNS
# OVCAR-4 ovarian = test system: OVCAR-4 ovarian
# 786-0 renal = test system: 786-0 renal
# SNB-75 CNS = test system: SNB-75 CNS
# HCT-15 colon = test system: HCT-15 colon
# TK-10 renal = test system: TK-10 renal
# SR leukemia = test system: SR leukemia
# CAKI-1 renal = test system: CAKI-1 renal
# NCI-H23 lung = test system: NCI-H23 lung
# OVCAR-5 ovarian = test system: OVCAR-5 ovarian
# UO-31 renal = test system: UO-31 renal
# M14 melanoma = test system: M14 melanoma
# COLO 205 colon = test system: COLO 205 colon
# DMS 273 small cell lung = test system: DMS 273 small cell lung
# SF-539 CNS = test system: SF-539 CNS
# M19-MEL melanoma = test system: M19-MEL melanoma
# SK-MEL-5 melanoma = test system: SK-MEL-5 melanoma
# U251 CNS = test system: U251 CNS
# HCT-116 colon = test system: HCT-116 colon
# DMS 114 small cell lung = test system: DMS 114 small cell lung
# LOX IMVI melanoma = test system: LOX IMVI melanoma
# HOP-92 NSCLC = test system: HOP-92 NSCLC
# UACC-257 melanoma = test system: UACC-257 melanoma
# NCI-H226 lung = test system: NCI-H226 lung
# LXFL 529 NSCLC = test system: LXFL 529 NSCLC
# A549 NSCLC = test system: A549 NSCLC
# NCI-H460 lung = test system: NCI-H460 lung
# KM20L2 colon = test system: KM20L2 colon
# KM12 colon = test system: KM12 colon
# SF-295 CNS = test system: SF-295 CNS
# SF-268 CNS = test system: SF-268 CNS
# MOLT-4 leukemia = test system: MOLT-4 leukemia
# SK-OV-3 ovarian = test system: SK-OV-3 ovarian
# SN12C renal = test system: SN12C renal
# SNB-78 CNS = test system: SNB-78 CNS
# XF 498 CNS = test system: XF 498 CNS
# SK-MEL-2 melanoma = test system: SK-MEL-2 melanoma
compound,measurement,setting,value
COc1ccccc1NC(=O)CC(=O)n1nc(C)c(N=Nc2ccccc2F)c1C,TGI,HL-60(TB) leukemia,> 100 µM
same,TGI,OVCAR-3 ovarian,> 100 µM
same,TGI,SK-MEL-28 melanoma,> 100 µM
same,TGI,A498 renal,> 100 µM
same,TGI,EKVX NSCLC,> 100 µM
same,TGI,SW-620 colon,> 100 µM
same,TGI,ACHN renal,> 100 µM
same,TGI,K-562 leukemia,> 31.6 µM
same,TGI,HT29 colon,> 100 µM
same,TGI,RPMI-8226 leukemia,> 100 µM
same,TGI,NCI-H522 lung,> 100 µM
same,TGI,HOP-18 NSCLC,> 100 µM
same,TGI,OVCAR-8 ovarian,> 100 µM
same,TGI,HOP-62 NSCLC,> 83.9 µM
same,TGI,RXF 393 renal,> 100 µM
same,TGI,HCC-2998 colon,> 100 µM
same,TGI,UACC-62 melanoma,> 100 µM
same,TGI,IGROV1 ovarian,> 100 µM
same,TGI,DLD-1 colon,> 100 µM
same,TGI,SNB-19 CNS,> 100 µM
same,TGI,OVCAR-4 ovarian,> 100 µM
same,TGI,786-0 renal,> 100 µM
same,TGI,SNB-75 CNS,28.3 µM
same,TGI,HCT-15 colon,> 100 µM
same,TGI,TK-10 renal,> 100 µM
same,TGI,SR leukemia,> 100 µM
same,TGI,CAKI-1 renal,> 100 µM
same,TGI,NCI-H23 lung,> 100 µM
same,TGI,OVCAR-5 ovarian,> 100 µM
same,TGI,UO-31 renal,> 100 µM
same,TGI,M14 melanoma,> 100 µM
same,TGI,COLO 205 colon,> 100 µM
same,TGI,DMS 273 small cell lung,> 100 µM
same,TGI,SF-539 CNS,> 64 µM
same,TGI,M19-MEL melanoma,> 100 µM
same,TGI,SK-MEL-5 melanoma,> 100 µM
same,TGI,U251 CNS,> 100 µM
same,TGI,HCT-116 colon,> 31.6 µM
same,TGI,DMS 114 small cell lung,> 100 µM
same,TGI,LOX IMVI melanoma,> 100 µM
same,TGI,HOP-92 NSCLC,> 100 µM
same,TGI,UACC-257 melanoma,> 100 µM
same,TGI,NCI-H226 lung,> 100 µM
same,TGI,LXFL 529 NSCLC,> 100 µM
same,TGI,A549 NSCLC,> 100 µM
same,TGI,NCI-H460 lung,> 100 µM
same,TGI,KM20L2 colon,> 100 µM
same,TGI,KM12 colon,> 100 µM
same,TGI,SF-295 CNS,> 100 µM
same,TGI,SF-268 CNS,> 93.3 µM
same,TGI,MOLT-4 leukemia,> 31.6 µM
same,TGI,SK-OV-3 ovarian,83.6 µM
same,TGI,SN12C renal,> 100 µM
same,TGI,SNB-78 CNS,> 31.6 µM
same,TGI,XF 498 CNS,> 83.3 µM
same,TGI,SK-MEL-2 melanoma,> 100 µM
